Experiment [1] concerns Caco-2 cells. Kind of experiment: Reactive oxygen species in Caco-2 cells (DCFH-DA). It is filed as cell-based, human. The following applies: 20 μM, FGF or PDGF 10 ng/ml 60 min. The method, then:
Caco-2 cells were plated in a 24-well plate at a density of 1.5×10^4 cells/well in DMEM and then serum-starved at 60-70% confluence in the absence and presence of 20 μM sorbinil or tolrestat for overnight in phenol red-free DMEM supplemented with 0.1% FBS. Cells were then pre-incubated for 30 min with the ROS-sensitive fluorophore 2′,7′-dichlorofluorescein diacetate (DCFH-DA), which is taken up and oxidized to the fluorescent dichlorofluorescein by intracellular ROS. After incubation with DCFH-DA, the cells were exposed to FGF or PDGF 10 ng/ml for 60 min and fluorescence was measured with a CytoFluorII fluorescence plate reader (PerSeptive Biosystems, Inc., Framingham, Mass.) at excitation of 485 nm and emission of 528 nm.

In experiment [2] the test system is Caco-2 cells. Kind of experiment: Cyclooxygenase activity assay in Caco-2 cells. It is filed as cell-based, human. Further details: dose or concentration left out as unconfirmed. The following applies: 24 h. On the procedure: For determination of Cox activity growth-arrested Caco-2 cells were treated with either 10 ng/ml BFGF or PDGF in the absence and presence of sorbinil […] for 24 h. The cells were harvested and homogenized in cold (4° C.) buffer containing 0.1M Tris-Hcl, pH 7.8 and 1 mM EDTA and the activity was measured in 96 well plate according to the manufacturer's (Cayman Chemical Co., Inc.) instructions. Briefly, 10 μl of standard/sample were incubated in the presence of arachidonic acid and substrate, N,N, N,N-tetra methyl-p-phenylenediamine (TMPD) in a total reaction volume of 210 μl. The Cox peroxidase activity was measured colorimetrically by monitoring appearance of oxidized TMPD at 590 nm by using ELISA reader.

For experiment [3], the system named is Caco-2 cells. Kind of experiment: NF-kB-dependent reporter SEAP expression assay. It is filed as cell-based, human. On the procedure:
Caco-2 cells (1.5×10^5 cells/well) were plated in six-well plates and after attachment overnight, were serum-starved in optiMEM medium for 24 h with or without aldose reductase inhibitor, sorbinil (20 μM) and were transiently transfected with pNF-kB-SEAP construct or control plasmid pTALSEAP DNA (Clontech, USA) using the lipofectamine plus reagent. After 6 h of transfection, cells were treated either with 10 ng/ml BFGF or PDGF for 48 h in DMEM medium containing 0.1% FBS. The cell culture medium was then harvested and analyzed for SEAP activity, essentially as described by the manufacturer (Clontech Laboratories, Palo Alto, Calif.), using a 96-well chemiluminescence plate reader and Kodak Image Station 2000R.

The subject of experiment [4] is A549 cells. Kind of experiment: Western blot of Cox-2 and iNOS in A549 cells. It is filed as cell-based, human. The following applies: concentration dependent. On the procedure: To examine expression of any of Cox-1, Cox-2, phospho-PKC-2, GAPDH, E2F1, Cyclin D1, Cyclin E, and iNOS proteins, Western blot analyses were carried by known methods (15). Equal amounts of protein from cell extracts were subjected to 12% SDS-PAGE followed by transfer of proteins to nitrocellulose filters, probing with the indicated antibodies, and the antigen-antibody complex was detected by enhanced chemiluminescence (Pierce, Piscataway, N.J., USA).
On the technique in general: Immunoblotting shows a protein as a band on a membrane.

Experiment [5] has as its system isolated mouse hearts. Kind of experiment: Isolated mouse hearts (Langendorff preparation) challenged with LPS. The settings on record: perfusion with sorbinil in the presence of LPS.
Experiment [6] has as its system C57BL/6 mice. Description: LPS signaling in the heart (NF-kB, AP1, iNOS, kinases). In kind it is in vivo, mouse. The text has this: At the indicated times, NF-kB activation (FIG. 8A), AP1 activation with an electrophoretic mobility shift assay (FIG. 8B), iNOS expression by western blotting (FIG. 8C), or PKC activation with a total PKC assay system (FIG. 8D) (SignaTect, Promega), or phosphorylated forms of the indicated kinases by western blotting (FIG. 8E), was detected. Values are means±SEM (N=4). *P<0.001 versus LPS-treated mice. OD, optical density.
In sorbinil-treated mice, however, activation of NF-κB and AP1 decreased by ˜70% at 2 h, and the levels returned to baseline by 24 h. […] These findings are consistent with the downregulation of inflammatory cytokines and chemokines in the serum and heart upon AR inhibition (FIGS. 8A-8D). […] AR inhibition attenuated the phosphorylation of almost all members of this cascade (FIG. 8D-8E). Thus, AR appears to […] the inflammatory cascade by regulating the activation of NF-κB, thereby protecting against cardiovascular collapse in the setting of overwhelming sepsis.

Experiment [7] deals with A549 cells. Description: Flowcytometric cell cycle analysis, A549. The following applies: 10% FBS. It is filed as cell-based, human. On the procedure: The Caco-2 and A549 cells were grown separately in 6 well plates at a density of approximately 1.5×10^5 cells/well. Growth-arrested Caco-2 cells were pre-incubated with or without sorbinil 20 μM or carrier for 24 h and then stimulated with either 10 ng/ml BFGF or PDGF for another 24 h. After 24 hrs A549 cells were incubated with or without sorbinil at different concentrations for another 24 h.
The Caco-2 and A549 cells were then washed with PBS and harvested by trypsinization. Cellular DNA was stained with low and high salt solutions. Briefly, cells were resuspended in 250 μl of solution A, low salt stain, containing polyetheleneglycol (30 mg/ml), propidium iodide (0.05 mg/ml), triton-x-100 (1 μl/ml), sodium citrate 4 mM, RNAse A 10 μg/ml and incubated at 37° C. for 20 min followed by the addition of 250 μl of solution B, high salt stain containing 400 mM NaCl instead of 4 mM sodium citrate in solution A, and incubated overnight at 4° C. Cell cycle analysis was performed with a minimum of 10,000 events per analysis by using FACScan flow cytometer (Becton, Dickinson and Co., San Jose, Calif., USA).

Where only a bound is given, the exact number is not on record here.

As for “(S)-6-fluorospiro[chroman-4,4′-imidazolidine]-2,5′-dione [sorbinil]”, the “growth factor-induced increase in ROS” value in experiment [1] is “inhibited”. Also, the “BFGF and PDGF-induced Cox activity” value in experiment [2] is listed as “abolished”. Also, in experiment [3] (sorbinil 20 μM), the “inhibition of BFGF and PDGF-induced NF-κB-dependent reporter (SEAP) activation” value is more than 60%. For the same substance, in experiment [3] (sorbinil alone), the NF-κB-SEAP activity entry is on record as “did not affect”. Also, in experiment [4], the “Cox-2 and iNOS expression” value is on record as “inhibit”. In addition, the “time to maximal ±dP/dt, coronary perfusion pressure, coronary vascular resistance, heart rate” value in experiment [5] is reported as “unaffected”. In experiment [5] (compared to vehicle), the “left ventricular pressure (LVP), +dP/dtmax and −dP/dtmax” value is “significantly increased”. In experiment [6] (after LPS), the “cardiac iNOS levels” value is recorded as “increased only slightly”; the “phosphorylation of upstream kinases of NF-κB and AP1 (MAPK, IKK, PKC, PLC) in the heart” value is “attenuated”. In addition, in experiment [6] (at 2 h after LPS), the “decrease of cardiac AP1 activation” value was approximately 70% and the “decrease of cardiac NF-κB activation” value was approximately 70%. For the same substance, the “time at which NF-κB and AP1 levels returned to baseline” value in experiment [6] (mouse, in vivo) is on record as not above 24 h. In experiment [7] (25 μM), the “percentage of cells in G1” value came out at 58.79%, the “percentage of cells in G2” value is 6.06% and the “percentage of cells in S” value is 35.14%. Also, in experiment [7] (50 μM), the “percentage of cells in G1” value was found to be 59.24%, the “percentage of cells in G2” value stood at 5.47% and the “percentage of cells in S” value was 35.29%. Also, in experiment [7] (75 μM), the “percentage of cells in G1” value was 64.21%, the “percentage of cells in G2” value turned out to be 5.55% and the “percentage of cells in S” value came to 30.24%. In addition, in experiment [7] (100 μM), the “percentage of cells in G1” value is 65.55%, the “percentage of cells in G2” value was found to be 4.8% and the “percentage of cells in S” value is 29.75%.

The values above are taken from patent publication US8551997B2, “Structural-based inhibitors of the glutathione binding site in aldose reductase, methods of screening therefor and methods of use” (The Board of Regents of the University of Texas System, priority 2004, dated 2013).
